Source: PMC11760092, “Pretreatment with serine protease inhibitors impairs Leishmania amazonensis survival on macrophages” (Parasites & Vectors, 2025)

How the values were obtained:
[1] = test system: Leishmania amazonensis-WT promastigotes; assay: Antipromastigote assay (MTT); assay type: cell-based; settings: for IC50: 72 h of incubation, interval in brackets, read-out: Antileishmanial effect in Leishmania amazonensis IC50 Promastigote
Description: Leishmania amazonensis–WT promastigotes, in the logarithmic phase of growth, were transferred to 96-well culture plates (final concentration 2 × 10^6 cells/mL) and exposed to different concentrations of inhbitors during 72 h at 25 °C. The cell viability was evaluated by the 3-(4,5-dimethylthiazol-2-yl)-2,5 diphenyltetrazolium bromide (MTT) method (obtained from Sigma-Aldrich). The inhibitory concentration of 50% of parasite growth (IC50) values were calculated using GraphPad Prism 8 software […]. Three independent experiments in triplicate were performed. Amphotericin B (Cristália, São Paulo, SP, Brazil) was used as a reference drug.

[2] = test system: peritoneal macrophages from BALB/c mice; assay: Cytotoxicity assay (MTT); assay type: cell-based; settings: 72 h of incubation; MTT; interval in brackets
Description: To determinate the toxicity of the inhibitors on mammalian cells, peritoneal macrophages from BALB/c mice, obtained by peritoneal lavage, in concentration of 2 × 10^6 macrophages/mL, were adhered in 96-well culture plates overnight at 37 °C with 5% CO2. The inhibitors were then added in different concentrations and incubated for 72 h at 37 °C and 5% CO2. Cell viability was also assessed by the MTT method. Cytotoxic concentration of 50% of macrophages (CC50) values were calculated using GraPadPrism 8 software. Three independent experiments in triplicate were performed.

[3] = test system: Leishmania amazonensis-RFP promastigotes; assay: Viability of promastigotes after 1 h of treatment with inhibitors; assay type: cell-based; settings: 1 h treatment, washed; 0 h, 24 h, 48 h and 72 h of incubation
Description: Leishmania amazonensis-RFP promastigotes were treated with different concentrations of inhibitors during 1 h at 25 °C and were washed with PBS. Then, these cells had their viability determined by fluorescence analysis using a spectrofluorimeter (time = 0 h) and were also reincubated in complete RPMI medium for subsequent analysis of cell viability after 24 h, 48 h, and 72 h (times = 24 h, 48 h, and 72 h) by fluorescence analysis.

[4] = test system: L. amazonensis (RFP) amastigotes; assay: Antiamastigote assay (RFP fluorescence, infected peritoneal macrophages); assay type: cell-based; settings: 72 h of incubation; interval in brackets; read-out: Antileishmanial effect in Leishmania amazonensis IC50 Amastigote
Description: Peritoneal macrophages from BALB/c mice were obtained by peritoneal lavage and distributed in 24-well plates at 2 × 10^6 cells/mL in RPMI medium (Cultilab) containing 10% FBS and a 0.5% penicillin and streptomycin solution (complete RPMI). The plates were incubated for 1 h at 37 °C and 5% CO2, washed with phosphate-buffered saline (PBS), and then reincubated in complete RPMI medium overnight. The cells were washed again with PBS and infected with stationary growth phase L. amazonensis (RFP) promastigotes at a 10:1 ratio for 4 h at 33 °C. The plates were washed with PBS and the inhibitors were added at different concentrations and incubated for 72 h. After this time, each well was scraped to remove attached cells and the reading was taken with a spectrofluorimeter (FLx800, BioTek Instruments, Winooski, VT, USA) at 530 nm and 590 nm of excitation and emission, respectively. […] All assays were performed in triplicate and repeated three times. Results were calculated as the percentage of amastigote survival compared with the nontreated control group, and IC50 values were determined using GraphPad Prism 8 software.

[5] = test system: L. amazonensis in peritoneal macrophages; assay: Promastigote pretreatment and infection of peritoneal macrophages; assay type: cell-based, Leishmania amazonensis; settings: for entry of promastigotes into macrophages: promastigotes pretreated 1 h, 0 h after 4 h interaction
Description: Leishmania amazonensis-RFP promastigotes were pretreated with different concentrations of inhbitors during 1 h at 25 °C. The cells were washed with PBS and used to infect peritoneal macrophages from BALB/c mice (10:1 ratio), not pretreated or pretreated with 0.5 ng/mL IFN-γ overnight, in 24-well plates. After 4 h of interaction, the plates were washed with PBS and (1) scraped to remove attached cells and read using a spectrofluorimeter (time = 0 h) or (2) incubated at 33 °C with 5% CO2 for 24 h, 48 h, and 72 h for later scraping and reading (times = 24 h, 48 h, and 72 h). Three experiments were performed, each one with three replicates.
The same experiment was repeated, but using 13 mm glass coverslips in 24-well plates. The fixation with ethanol and staining with Giemsa were performed. Subsequently, the slides were examined in an optical microscope (Olympus BX53, Shinjuku, Tokyo, Japan) and photographed (Olympus DP73, Shinjuku, Tokyo, Japan).

[6] = test system: L. amazonensis serine proteases; set-up: method as in PMID 25583728; settings: cited from earlier work
[7] = test system: L. amazonensis promastigotes and amastigotes; settings: cited from earlier work
L. amazonensis = settings: mice infected with L. amazonensis; cited from earlier work
[8] = test system: L. donovani serine proteases; set-up: method as in PMID 26040107; settings: concentration not given; cited from earlier work
[9] = test system: L. donovani promastigotes; set-up: method as in PMID 26040107; settings: concentration not given; cited from earlier work
[10] = test system: L. amazonensis promastigotes; set-up: method as in PMID 17726617; settings: 100 µM; cited from earlier work

Molecule: O=S(=O)(F)Cc1ccccc1 [PMSF]
- IC50 [1]: > 200 µM
- CC50 [2]: 269 µM
- viability of promastigotes after 1 h of treatment, compared with the control [3]: did not change the viability
- IC50 [4]: > 200 µM
- entry of promastigotes into macrophages [5]: did not change the entry
- permanence and survival of amastigotes within host cells ([5]; promastigotes pretreated 1 h with 200 µM or 6.25 µM, up to 72 h): did not alter the permanence and survival

Molecule: epoxy-α-lapachone
- inhibition of L. amazonensis serine proteases [6]: inhibited L. amazonensis serine proteases
- effect on promastigotes and amastigotes of L. amazonensis [7]: effective against promastigotes and amastigotes
- lesion size (L. amazonensis): reduction of the lesion size

Molecule: Cc1ccc(S(=O)(=O)N[C@@H](CCCCN)C(=O)CCl)cc1 [TLCK]
- inhibition of the proteolytic activity [8]: 18%
- IC50 [1]: 52.5 µM
- inhibition of the parasite's viability ([1]; promastigotes, 6.25 µM): around 10%
- CC50 [2]: 104 µM
- cell viability of L. donovani promastigotes (reduction) [9]: only did so after 15 h and 20 h
- viability of promastigotes after 1 h of treatment, compared with the control [3]: did not change the viability
- IC50 [4]: 140 µM
- entry of promastigotes into macrophages [5]: occurred similarly to the control
- survival of parasites within macrophages ([5]; promastigotes pretreated 1 h with 100 µM, 48 h and 72 h of infection): slightly reduced
- viability of L. amazonensis promastigotes [10]: did not reduce promastigote viability
